Laboratory results from patent publication US12427134B2, “Methods of reducing the risk of cardiovascular events in a subject with atrial fibrillation and/or atrial flutter” (priority 2019, dated 2025).

Tested on: hypertriglyceridemic patients with cardiovascular disease or at high risk for cardiovascular disease
Assay: REDUCE-IT: subgroup analyses of the primary and key secondary endpoints
Assay type: in vivo, human
Details: for Primary endpoint, patients with event (%) / Time to primary endpoint, HR (95% CI) AMR101/Placebo / Primary endpoint, patients with event n/N: ITT
Protocol: Exploratory Subgroup Analyses: Analyses of the effects that patients off study drug and withdrawn from study have on the primary endpoint were performed. Subgroup analyses of the primary and key secondary endpoints were performed as described for the primary endpoint. For each subgroup, Kaplan-Meier estimates, the log-rank test stratified by stratification factors used at randomization (except where the subgroup was a stratification factor), and HRs and CIs from the Cox proportional hazards model as specified for the primary efficacy endpoint, were summarized by treatment group. Demographic, disease, treatment, and baseline lipid and lipoproteins parameters were explored.
Demographic parameters included: Gender; age at baseline (<65 years and ≥65 years); race (white and nonwhite, or any other subset with at least 10% of the total number of patients); geographical region (Westernized, Eastern European, and Asia Pacific countries); and baseline ezetimibe use (yes/no).
Disease parameters included: CV risk category; the presence/absence of diabetes at baseline; and renal dysfunction at baseline (estimated glomerular filtration rate [eGFR]<60 mL/min/1.73 m^2) using the Chronic Kidney Disease Epidemiology Collaboration (CKD-EPI) equation as follows: eGFR=141×min(Scr/κ,1)^α×max(Scr/κ,1)^[…]^Age×1.018 [if female]×1.159 [if black]
Treatment Parameters included: Statin intensity at baseline (statin type and regimen); and statin intensity categories as defined in ACC/AHA Cholesterol Guidelines (Stone 2013) and patient's 10-year CV Risk Score (Goff 2013).
Baseline Lipid and Lipoprotein Parameter included: LDL-C (by tertile); HDL-C (by tertile, and tertile by gender); TG (by tertile, and tertile by gender); RLP-C (by tertile); TG ≥150 mg/dL and TG <150 mg/dL; TG ≥200 mg/dL and TG <200 mg/dL; TG ≥median, TG <median; combined highest tertile for TG and lowest tertile for HDL-C; gender-specific highest tertile for TG and lowest tertile for HDL-C; TG ≥200 mg/dL with HDL-C ≤35 mg/dL; hsCRP (≤3 mg/L and >3 mg/L) and by gender; hsCRP (≤2 mg/L and >2 mg/L) and by gender; Apo B (by tertile); non-HDL-C (by tertile); baseline hemoglobin A1c (Hb1c) value (<6.5%, ≥6.5%); baseline PAD; and baseline TG levels ≥150 mg/dL with high-density lipoprotein cholesterol (HDL-C) levels ≤40 mg/dL for males and ≤50 mg/dL for females.
A Cox proportional hazard (PH) model as mentioned above but additionally with baseline TG as a covariate were fitted to the data at each interim. Diagnostic plots for the PH assumption were evaluated. The consistency of the treatment effects in subgroups was assessed for the primary and key secondary efficacy endpoints. For each subgroup variable, a Cox PH model with terms for treatment, stratification factors (with the exception of those subgroup variables related to the stratification factors, i.e., CV risk category), subgroup, and treatment-by-subgroup interaction were performed. The main treatment effect was tested with this model. P-values for testing the interaction terms <0.15 were considered significant. Results were presented in a Forest plot.
Subgroup analyses of the primary and key secondary endpoints were performed as described for the primary endpoint. For each subgroup, Kaplan-Meier estimates, the log-rank test stratified by stratification factors used at randomization (except where the subgroup was a stratification factor), and HRs and CIs from the Cox proportional hazards model as specified for the primary efficacy endpoint, were summarized by treatment group. All subgroup analyses were conducted for the ITT, mITT and PP populations.
Of note regarding the following subgroup analyses, per study design, subgroup analyses are underpowered to detect statistically significant results within each individual subgroup, particularly when a subgroup represents less than 50% of the enrolled population, and when a subgroup has low event rates. […]

[1] = Baseline TG <150 mg/dL or HDL-C >40 mg/dL (Males) or >50 mg/dL (Females)
[2] = Baseline TG ≥150 mg/dL and HDL-C ≤40 mg/dL (Males) or ≤50 mg/dL (Females)
[3] = Females, Baseline hsCRP >2 mg/L
[4] = Females, Baseline hsCRP ≤2 mg/L
[5] = Females, HDL-C Highest Tertile (>48 to ≤96.5 mg/dL)
[6] = Females, HDL-C Lowest Tertile (≥21 to ≤41 mg/dL)
[7] = Females, HDL-C Middle Tertile (>41 to ≤48 mg/dL)
[8] = Females, Highest tertile for baseline TG and lowest tertile for baseline HDL-C (No)
[9] = Females, Highest tertile for baseline TG and lowest tertile for baseline HDL-C (Yes)
[10] = Females, TG Highest Tertile (>241.5 to ≤1401 mg/dL)
[11] = Females, TG Lowest Tertile (≥92.5 to ≤186 mg/dL)
[12] = Females, TG Middle Tertile (>186 to ≤241.5 mg/dL)
[13] = Males, HDL-C Highest Tertile (>42 to ≤107.5 mg/dL)
[14] = Males, HDL-C Lowest Tertile (≥17 to ≤35.5 mg/dL)
[15] = Males, HDL-C Middle Tertile (>35.5 to ≤42 mg/dL)
[16] = Males, Highest tertile for baseline TG and lowest tertile for baseline HDL-C (No)
[17] = Males, Highest tertile for baseline TG and lowest tertile for baseline HDL-C (Yes)
[18] = Males, TG Highest Tertile (>253.5 to ≤830 mg/dL)
[19] = Males, TG Lowest Tertile (≥81.25 to ≤191.5 mg/dL)
[20] = Males, TG Middle Tertile (>191.5 to ≤253.5 mg/dL)
[21] = Overall (Males and Females), Baseline hsCRP >2 mg/L
[22] = Overall (Males and Females), Baseline hsCRP ≤2 mg/L
[23] = Overall (Males and Females), HDL-C Highest Tertile (>43.5 to ≤107.5 mg/dL)
[24] = Overall (Males and Females), HDL-C Lowest Tertile (≥17 to ≤36.5 mg/dL)
[25] = Overall (Males and Females), HDL-C Middle Tertile (>36.5 to ≤43.5 mg/dL)
[26] = Overall (Males and Females), Highest tertile for baseline TG and lowest tertile for baseline HDL-C (No)
[27] = Overall (Males and Females), Highest tertile for baseline TG and lowest tertile for baseline HDL-C (Yes)
[28] = Overall (Males and Females), TG Highest Tertile (>250 to ≤1401 mg/dL)

CC/C=C\C/C=C\C/C=C\C/C=C\C/C=C\CCCC(=O)OCC [AMR101, eicosapentaenoic acid ethyl ester]
Key secondary endpoint event, patients (<65 years subgroup): 9.0%
Key secondary endpoint, HR (<65 years subgroup): 0.652
Primary endpoint event, patients (<65 years subgroup): 14.4%
Primary endpoint, HR (<65 years subgroup): 0.650
Primary endpoint, patients with event (%) (Baseline HbA1c <6.5%): 16.5%
Time to primary endpoint, HR (95% CI) AMR101/Placebo (Baseline HbA1c <6.5%): 0.793
Time to primary endpoint, HR (95% CI) AMR101/Placebo (Baseline HbA1c ≥6.5%): 0.701
Primary endpoint, patients with event (%) [1]: 18.2%
Time to primary endpoint, HR (95% CI) AMR101/Placebo [1]: 0.842
Primary endpoint, patients with event (%) [2]: 16.5%
Time to primary endpoint, HR (95% CI) AMR101/Placebo [2]: 0.691
Primary endpoint, patients with event (%) [3]: (15.0) %
Primary endpoint, patients with event n/N [3]: 113/752
Time to primary endpoint, HR (95% CI) AMR101/Placebo [3]: 0.930
Primary endpoint, patients with event (%) [4]: (10.0) %
Primary endpoint, patients with event n/N [4]: 41/409
Time to primary endpoint, HR (95% CI) AMR101/Placebo [4]: 0.621
Primary endpoint, patients with event (%) [5]: (13.9) %
Primary endpoint, patients with event n/N [5]: 50/359
Time to primary endpoint, HR (95% CI) AMR101/Placebo [5]: 0.936
Primary endpoint, patients with event (%) [6]: (16.7) %
Primary endpoint, patients with event n/N [6]: 71/426
Time to primary endpoint, HR (95% CI) AMR101/Placebo [6]: 0.894
Primary endpoint, patients with event (%) [7]: (8.8) %
Primary endpoint, patients with event n/N [7]: 33/374
Time to primary endpoint, HR (95% CI) AMR101/Placebo [7]: 0.609
Primary endpoint, patients with event (%) [8]: (13.7) %
Primary endpoint, patients with event n/N [8]: 59/431
Time to primary endpoint, HR (95% CI) AMR101/Placebo [8]: 0.755
Primary endpoint, patients with event (%) [9]: (15.7) %
Primary endpoint, patients with event n/N [9]: 29/185
Time to primary endpoint, HR (95% CI) AMR101/Placebo [9]: 0.934
Primary endpoint, patients with event (%) [10]: (12.3) %
Primary endpoint, patients with event n/N [10]: 46/375
Time to primary endpoint, HR (95% CI) AMR101/Placebo [10]: 0.734
Primary endpoint, patients with event n/N [11]: 49/396
Time to primary endpoint, HR (95% CI) AMR101/Placebo [11]: 0.728
Primary endpoint, patients with event (%) [12]: (15.1) %
Primary endpoint, patients with event n/N [12]: 59/390
Time to primary endpoint, HR (95% CI) AMR101/Placebo [12]: 1.077
Primary endpoint, patients with event (%) (Males, Baseline hsCRP >2 mg/L): (21.5) %
Time to primary endpoint, HR (95% CI) AMR101/Placebo (Males, Baseline hsCRP >2 mg/L): 0.772
Primary endpoint, patients with event (%) (Males, Baseline hsCRP ≤2 mg/L): (16.4) %
Time to primary endpoint, HR (95% CI) AMR101/Placebo (Males, Baseline hsCRP ≤2 mg/L): 0.691
Primary endpoint, patients with event (%) [13]: (20.5) %
Primary endpoint, patients with event n/N [13]: 187/913
Time to primary endpoint, HR (95% CI) AMR101/Placebo [13]: 0.857
Primary endpoint, patients with event (%) [14]: (19.0) %
Time to primary endpoint, HR (95% CI) AMR101/Placebo [14]: 0.652
Primary endpoint, patients with event (%) [15]: (16.9) %
Primary endpoint, patients with event n/N [15]: 160/945
Time to primary endpoint, HR (95% CI) AMR101/Placebo [15]: 0.717
Primary endpoint, patients with event (%) [16]: (18.1) %
Time to primary endpoint, HR (95% CI) AMR101/Placebo [16]: 0.693
Primary endpoint, patients with event (%) [17]: (19.9) %
Primary endpoint, patients with event n/N [17]: 90/453
Time to primary endpoint, HR (95% CI) AMR101/Placebo [17]: 0.632
Primary endpoint, patients with event (%) [18]: (18.9) %
Primary endpoint, patients with event n/N [18]: 181/960
Time to primary endpoint, HR (95% CI) AMR101/Placebo [18]: 0.671
Primary endpoint, patients with event (%) [19]: (19.0) %
Primary endpoint, patients with event n/N [19]: 185/972
Primary endpoint, patients with event (%) [20]: (18.6) %
Primary endpoint, patients with event n/N [20]: 185/993
Time to primary endpoint, HR (95% CI) AMR101/Placebo [20]: 0.741
Primary endpoint, patients with event (%) [21]: (19.2) %
Time to primary endpoint, HR (95% CI) AMR101/Placebo [21]: 0.813
Primary endpoint, patients with event (%) [22]: (15.0) %
Time to primary endpoint, HR (95% CI) AMR101/Placebo [22]: 0.680
Primary endpoint, patients with event (%) [23]: 15.9%
Time to primary endpoint, HR (95% CI) AMR101/Placebo [23]: 0.812
Primary endpoint, patients with event (%) [24]: 18.1%
Time to primary endpoint, HR (95% CI) AMR101/Placebo [24]: 0.667
Primary endpoint, patients with event (%) [25]: 17.6%
Time to primary endpoint, HR (95% CI) AMR101/Placebo [25]: 0.800
Primary endpoint, patients with event (%) [26]: (16.3) %
Time to primary endpoint, HR (95% CI) AMR101/Placebo [26]: 0.679
Primary endpoint, patients with event (%) [27]: (19.1) %
Primary endpoint, patients with event n/N [27]: 118/619
Time to primary endpoint, HR (95% CI) AMR101/Placebo [27]: 0.670
Primary endpoint, patients with event (%) [28]: 16.9%
Time to primary endpoint, HR (95% CI) AMR101/Placebo [28]: 0.675
